Source: patent US11591318B2, “Bipyrazole derivatives as JAK inhibitors” (Incyte Corporation, priority 2013, dated 2023)
Counter-ions that a name gives are not always drawn.

Tested on: human JAK1 (a.a. 837-1142)
Assay: In vitro JAK kinase assay (HTRF), JAK1
Type: biochemical
Conditions: ratio of IC50 values at 1 mM ATP
Experimental: The catalytic activity of JAK1, JAK2 or JAK3 was assayed by measuring the phosphorylation of a biotinylated peptide. The phosphorylated peptide was detected by homogenous time resolved fluorescence (HTRF). […] Reactions were carried out at room temperature for 1 hour and then stopped with 20 μL 45 mM EDTA, 300 nM SA-APC, 6 nM Eu-Py20 in assay buffer (Perkin Elmer, Boston, Mass.). Binding to the Europium labeled antibody took place for 40 minutes and HTRF signal was measured on a Fusion plate reader (Perkin Elmer, Boston, Mass.).

Row | JAK2/JAK1 | SMILES
1 | >10 | Cc1[nH]ncc1-c1cnn(C2(CC#N)CN(c3cnc(C(=O)N[C@@H](C)C(F)(F)F)cn3)C2)c1 [Example 1, 5-[3-(Cyanomethyl)-3-(3′-methyl-1H,1′H-4,4′-bipyrazol-1-yl)azetidin-1-yl]-N-[(1S)-2,2,2-trifluoro-1-methylethyl]pyrazine-2-carboxamide trifluoroacetate]
2 | >10 | Cc1n[nH]cc1-c1cnn(C2(CC#N)CN(c3cnc(C(=O)NC(C)C)cn3)C2)c1 [Example 2, 5-[3-(Cyanomethyl)-3-(3′-methyl-1H,1′H-4,4′-bipyrazol-1-yl)azetidin-1-yl]-N-isopropylpyrazine-2-carboxamide trifluoroacetate]
3 | >10 | C[C@H](NC(=O)c1cc(F)c(N2CC(CC#N)(n3cc(-c4cn[nH]c4)cn3)C2)cc1F)C(F)(F)F [Example 5, 4-[3-(1H,1′H-4,4′-Bipyrazol-1-yl)-3-(cyanomethyl)azetidin-1-yl]-2,5-difluoro-N-[(1S)-2,2,2-trifluoro-1-methylethyl]benzamide trifluoroacetate]
4 | >10 | Cc1n[nH]cc1-c1cn(C2(CC#N)CN(c3cnc(C(=O)NC(C)C)cn3)C2)nc1C [Example 6, 5-[3-(Cyanomethyl)-3-(3,3′-dimethyl-1H,1′H-4,4′-bipyrazol-1-yl)azetidin-1-yl]-N-isopropylpyrazine-2-carboxamide trifluoroacetate]
